Values quoted from earlier work, collected in patent publication US6344215B1, “Methylphenidate modified release formulations” (Eurand America, Inc., priority 2000, dated 2002).
Counter-ions that a name gives are not always drawn.

Details: gastrointestinal tract

**Q.** Which absorption does the source give for `COC(=O)C(c1ccccc1)C1CCCCN1` (stereo not shown) [Methylphenidate Hydrochloride] here?
**A.** well absorbed throughout the gastrointestinal tract
